Data published in US20090326003A1, “PYRAZOLO (3, 4-B) PYRIDINE DERIVATIVES AS PDE4 INHIBITORS” (priority 2006, published 2009).
Counter-ions that a name gives are not always drawn. Blank lines part the entries; values can stand above or below the molecule they belong to.

What was measured:
[1] = target: T1, PDE4B (human recombinant) (Homo sapiens, UniProt Q07343); test: PDE4B inhibition, fluorescence polarisation (FP) and/or SPA assay; format: biochemical; details: n=1 or average of 2 or more readings, accuracy ±about 0.5 log unit, read-out: PDE4B pIC50 (generally in FP assay) (±about 0.5) (converted)
T1 construct: made in house
T1 sequence (Q07343 1-564 isoform Q07343-2): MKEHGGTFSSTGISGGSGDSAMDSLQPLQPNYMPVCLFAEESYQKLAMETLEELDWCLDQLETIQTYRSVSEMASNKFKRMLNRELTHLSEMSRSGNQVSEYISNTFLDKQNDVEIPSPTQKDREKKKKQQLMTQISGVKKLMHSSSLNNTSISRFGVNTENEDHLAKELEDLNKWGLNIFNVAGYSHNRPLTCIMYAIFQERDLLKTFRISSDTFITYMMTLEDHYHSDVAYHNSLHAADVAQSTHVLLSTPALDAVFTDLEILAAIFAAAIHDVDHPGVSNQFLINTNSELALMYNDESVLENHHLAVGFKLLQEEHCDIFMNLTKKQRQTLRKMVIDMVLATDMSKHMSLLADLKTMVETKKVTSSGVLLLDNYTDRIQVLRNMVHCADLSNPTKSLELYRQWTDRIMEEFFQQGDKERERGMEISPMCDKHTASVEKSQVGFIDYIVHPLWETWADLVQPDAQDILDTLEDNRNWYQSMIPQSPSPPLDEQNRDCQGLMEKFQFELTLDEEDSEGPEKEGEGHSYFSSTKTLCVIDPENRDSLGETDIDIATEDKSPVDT
Description: Human recombinant PDE4B, in particular the 2B splice variant thereof (HSPDE4B2B), is disclosed in WO 94/20079 and also M. M. McLaughlin et al., “A low Km, rolipram-sensitive, cAMP-specific phosphodiesterase from human brain: cloning and expression of cDNA, biochemical characterisation of recombinant protein, and tissue distribution of mRNA”, J. Biol. Chem., 1993, 268, 6470-6476. For example, in Example 1 of WO 94/20079, human recombinant PDE4B is described as being expressed in the PDE-deficient yeast Saccharomyces cerevisiae strain GL62, e.g. after induction by addition of 150 uM CuSO4, and 100,000×g supernatant fractions of yeast cell lysates are described for use in the harvesting of PDE4B enzyme.
The ability of compounds to inhibit catalytic activity at PDE4B or 4D (human recombinant), PDE3 (from bovine aorta), PDE5 (human recombinant) or PDE6 (from bovine retina) can optionally be determined by Scintillation Proximity Assay (SPA) in a 96-well format.
Test compounds (as a solution in DMSO, preferably about 2 microliter (ul) volume of DMSO solution) are preincubated at ambient temperature (room temperature, e.g. 19-23° C.) in Wallac Isoplates (code 1450-514) with PDE enzyme in 50 mM Tris-HCl buffer pH 7.5, 8.3 mM MgCl2, 1.7 mM EGTA, 0.05% (w/v) bovine serum albumin for 10-30 minutes (usually 30 minutes). The enzyme concentration is adjusted so that no more than 20% hydrolysis of the substrate defined below occurs in control wells without compound, during the incubation. For the PDE3, PDE4B and PDE4D assays, [5′,8-3H]Adenosine 3′,5′-cyclic phosphate (Amersham Pharmacia Biotech, code TRK.559; or Amersham Biosciences UK Ltd, Pollards Wood, Chalfont St Giles, Buckinghamshire HP8 4SP, UK) is added to give 0.05 uCi per well and about 10 nM final concentration. For the PDE5 and PDE6 assays, [8-^3H]Guanosine 3′,5′-cyclic phosphate (Amersham Pharmacia Biotech, code TRK.392) is added to give 0.05 uCi per well and about 36 nM final concentration. Plates containing assay mixture, preferably approx. 100 ul volume of assay mixture, are mixed on an orbital shaker for 5 minutes and incubated at ambient temperature for 1 hour. Phosphodiesterase SPA beads (Amersham Pharmacia Biotech, code RPNQ 0150) are added (about 1 mg per well) to terminate the assay. Plates are sealed and shaken and allowed to stand at ambient temperature for 35 minutes to 1 hour (preferably 35 minutes) to allow the beads to settle. Bound radioactive product is measured using a WALLAC TRILUX 1450 Microbeta scintillation counter. For inhibition curves, 10 concentrations (e.g. 1.5 nM-30 uM) of each compound are assayed. Curves are analysed using ActivityBase and XLfit (ID Business Solutions Limited, 2 Ocean Court, Surrey Research Park, Guildford, Surrey GU2 7QB, United Kingdom) Results are expressed as pIC50 values.
The ability of compounds to inhibit catalytic activity at PDE4B (human recombinant) or PDE4D (human recombinant) can optionally be determined by IMAP Fluorescence Polarisation (FP) assay (IMAP Explorer kit, available from Molecular Devices Corporation, Sunnydale, Calif., USA; Molecular Devices code: R8062) in 384-well format.
The IMAP FP assay is able to measure PDE activity in an homogenous, non-radioactive assay format. The FP assay uses the ability of immobilised trivalent metal cations, coated onto nanoparticles (tiny beads), to bind the phosphate group of FI-AMP that is produced on the hydrolysis of fluorescein-labelled (FI) cyclic adenosine mono-phosphate (FI-cAMP) to the non-cyclic FI-AMP form. […] Binding of FI-AMP product to the beads (coated with the immobilised trivalent cations) slows the rotation of the bound FI-AMP and leads to an increase in the fluorescence polarisation ratio of parallel to perpendicular light. Inhibition of the PDE reduces/inhibits this signal increase. […]

[2] = tested on: TNF-α production in human PBMC (peripheral blood mononuclear cells); test: Inhibition of TNF-alpha production in human PBMC (MSD technology); format: cell-based; details: inhibition of LPS-stimulated TNF-α production in human PBMC; measured and/or mean; read-out: PBMC pIC50 (MSD assay) (converted)
Protocol: A 96-well plate (96 MicroWell™ Plates Nunclon™Δ-High Flange Design, Fisher Scientific UK, Bishop Meadow Road, Loughborough LE 11 5 RG, Leicestershire, UK) is prepared by initially adding to column 1 ca. 10 mM of test compound dissolved in DMSO. […] The compound is further diluted with DMSO into columns 2 to 9 by 8 successive 3fold dilutions using the Biomek® FX Laboratory Automation Workstation (Beckman Coulter, Inc., 4300 N. Harbor Boulevard, P.O. Box 3100, Fullerton, Calif. 92834-3100 USA). Column 10 is used as a DMSO negative control (High Signal, 0% response), whilst column 11, which contains 10 mM of the PDE4 inhibitor roflumilast, is used as a positive control (Low Signal, 100% response). About 1 μl (about 1 ul) of compound is transferred to the compound plate using the Biomek® FX.
PBMC cells (peripheral blood mononuclear cells) are prepared from heparinised human blood (using 1% v/v Heparin Sodium 10001 U/ml Endotoxin Free, Leo Laboratories Ltd., Cashel Road, Dublin 12. Ireland, Cat No: PL0043/0149) from normal volunteers using the Accuspin™ System-Histopaque®-1077 essentially (Sigma-Aldrich Company Ltd., The Old Brickyard New Rd, Gillingham Dorset SP8 4XT). About 20 ml of blood is overlaid onto 15 ml Histopaque® in Accuspin™ tubes. The tube is then centrifuged at about 800 g for ca. 20 minutes. The cells are collected from the interface, washed by centrifugation (ca. 1300 g, ca. 10 minutes) and resuspended in RPMI1640 medium (Low endotoxin RPMI1640 medium, Cat No: 31870-025, Invitrogen Corporation Invitrogen Ltd, 3 Fountain Drive, Inchinnan Business Park, Paisley PA4 9RF, UK) containing 10% foetal calf serum, 1% L-glutamine (Invitrogen Corporation, Cat No: 25030024) and 1% penicillin/streptomycin (Invitrogen Corporation, Cat No: 15140-122). Viable cells are counted by trypan blue staining and diluted to 1×10^6 viable cells/ml. About 50 μl (about 50 ul) of diluted cells and about 75 μl (about 75 ul) of LPS (ca. 1 ng/ml final; Sigma Cat No: L-6386) are added to the compound plate, which is then incubated at 37° C., 5% CO2, for 20 hours.
The supernatant is removed and the concentrations of TNF-α are determined by electrochemiluminescence assay using the Meso Scale Discovery (MSD) technology (Meso Scale Discovery, 9238 Gaither Road, Gaithersburg, Md. 20877, USA). See the “TNF-α (TNF-alpha) MSD Assay” described below for typical details.
Using the Biomek FX, 25 μl (25 ul) of MSD Human Serum Cytokine Assay Diluent (Meso Scale Discovery, 9238 Gaither Road, Gaithersburg, Md. 20877) is added to a 96-well High-Bind MSD plate pre-coated with anti-hTNF alpha capture antibody (MA6000) and then incubated for 24 hours at 4° C. to prevent non-specific binding. […]
For the PBMC assay, about 20 μl (ul) of diluted sulfo-TAG antibody (ca. 1 μg/ml final) is added to each well, and the plates/wells are shaken at room temperature for 2 hours. Finally, about 90 μl (ul) of MSD Read Buffer P (diluted to 2.5 times with distilled water) is added and the plates are read on a MSD Sector 6000.
Data analysis is performed with ActivityBase/XC50 module (ID Business Solutions Ltd., 2 Occam Court, Surrey Research Park, Guildford, Surrey, GU2 7QB UK). Data are normalized and expressed as % inhibition using the formula 100*((U-C1)/(C2-C1)) where U is the unknown value, C1 is the average of the high signal (0%) control wells (column 10), and C2 is the average of the low signal (100%) control wells (column 11). […]

Compound: CCc1nc2c(cnn2CC)c(NC2CCOCC2)c1CNC(=O)c1cccc(-c2cccc(C(=O)NCc3c(CC)nc4c(cnn4CC)c3NC3CCOCC3)c2)c1 [Example 10, N,N′-bis{[1,6-diethyl-4-(tetrahydro-2H-pyran-4-ylamino)-1H-pyrazolo[3,4-b]pyridin-5-yl]methyl}-3,3′-biphenyldicarboxamide]
IC50 [1]: ~0.1 nM
IC50 [2]: ~0.02 nM

Compound: CCc1nc2c(cnn2CC)c(NC2CCOCC2)c1CNC(=O)c1ccc(C(=O)NCc2c(CC)nc3c(cnn3CC)c2NC2CCOCC2)cc1 [Example 22, N,N′-bis{[1,6-diethyl-4-(tetrahydro-2H-pyran-4-ylamino)-1H-pyrazolo[3,4-b]pyridin-5-yl]methyl}-1,4-benzenedicarboxamide]
IC50 [1]: 0.126 to 1 nM

Compound: CCc1nc2c(cnn2CC)c(NC2CCOCC2)c1CNC(=O)c1ccc(Oc2ccc(C(=O)NCc3c(CC)nc4c(cnn4CC)c3NC3CCOCC3)cc2)cc1 [Example 24, 4,4′-oxybis(N-{[1,6-diethyl-4-(tetrahydro-2H-pyran-4-ylamino)-1H-pyrazolo[3,4-b]pyridin-5-yl]methyl}benzamide)]
IC50 [1]: 0.126 to 1 nM

Compound: CCc1nc2c(cnn2CC)c(NC2CCOCC2)c1CNC(=O)c1ccnc(-c2cc(C(=O)NCc3c(CC)nc4c(cnn4CC)c3NC3CCOCC3)ccn2)c1 [Example 31, N,N′-bis{[1,6-diethyl-4-(tetrahydro-2H-pyran-4-ylamino)-1H-pyrazolo[3,4-b]pyridin-5-yl]methyl}-2,2′-bipyridine-4,4′-dicarboxamide]
IC50 [1]: 0.0158 to 0.1 nM

Compound: CCc1nc2c(cnn2CC)c(NC2CCOCC2)c1CNC(=O)c1ccc(-c2ccc(C(=O)NCc3c(CC)nc4c(cnn4CC)c3NC3CCOCC3)cn2)nc1 [Example 34, N,N′-bis{[1,6-diethyl-4-(tetrahydro-2H-pyran-4-ylamino)-1H-pyrazolo[3,4-b]pyridin-5-yl]methyl}-2,2′-bipyridine-5,5′-dicarboxamide]
IC50 [1]: 0.126 to 1 nM

Now from value to molecule:

IC50 [1]: 0.0158 to 0.1 nM
Compound: CCc1nc2c(cnn2CC)c(NC2CCN(C(N)=O)CC2)c1CNC(=O)CC(C)(C)CC(=O)NCc1c(CC)nc2c(cnn2CC)c1NC1CCN(C(N)=O)CC1 [Example 19, N,N′-bis[(4-{[1-(aminocarbonyl)-4-piperidinyl]amino}-1,6-diethyl-1H-pyrazolo[3,4-b]pyridin-5-yl)methyl]-3,3-dimethylpentanediamide trifluoroacetate]

IC50 [1]: 0.0158 to 0.1 nM
Compound: CCc1nc2c(cnn2CC)c(NC2CCN(C(N)=O)CC2)c1CNC(=O)C1CCC(C(=O)NCc2c(CC)nc3c(cnn3CC)c2NC2CCN(C(N)=O)CC2)C1 (stereo not drawn) [Example 20, N,N′-bis[(4-{[1-(aminocarbonyl)-4-piperidinyl]amino}-1,6-diethyl-1H-pyrazolo[3,4-b]pyridin-5-yl)methyl]-1,3-cyclopentanedicarboxamide trifluoroacetate]

IC50 [1]: 0.0158 to 0.1 nM
Compound: CCc1nc2c(cnn2CC)c(NC2CCN(C(N)=O)CC2)c1CNC(=O)c1ccc(C(=O)NCc2c(CC)nc3c(cnn3CC)c2NC2CCN(C(N)=O)CC2)cc1 [Example 25, N,N′-bis[(4-{[1-(aminocarbonyl)-4-piperidinyl]amino}-1,6-diethyl-1H-pyrazolo[3,4-b]pyridin-5-yl)methyl]-1,4-benzenedicarboxamide]

IC50 [1]: 0.0158 to 0.1 nM
Compound: CCc1nc2c(cnn2CC)c(NC2CCN(C(N)=O)CC2)c1CNC(=O)c1ccc(-c2ccc(C(=O)NCc3c(CC)nc4c(cnn4CC)c3NC3CCN(C(N)=O)CC3)cc2)cc1 [Example 26, N,N′-bis[(4-{[1-(aminocarbonyl)-4-piperidinyl]amino}-1,6-diethyl-1H-pyrazolo[3,4-b]pyridin-5-yl)methyl]-4,4′-biphenyldicarboxamide]

IC50 [1]: 0.0158 to 0.1 nM
Compound: CCc1nc2c(cnn2CC)c(NC2CCN(C(N)=O)CC2)c1CNC(=O)c1ccc(Oc2ccc(C(=O)NCc3c(CC)nc4c(cnn4CC)c3NC3CCN(C(N)=O)CC3)cc2)cc1 [Example 27, 4,4′-{oxybis[benzene-4,1-diyl(oxomethanediyl)iminomethanediyl(1,6-diethyl-1H-pyrazolo[3,4-b]pyridine-5,4-diyl)imino]}di(1-piperidinecarboxamide)]

IC50 [1]: 0.126 to 1 nM
Compound: CCc1nc2c(cnn2CC)c(NC2CCOCC2)c1CNC(=O)c1cnc(C(=O)NCc2c(CC)nc3c(cnn3CC)c2NC2CCOCC2)cn1 [Example 32, N,N′-bis{[1,6-diethyl-4-(tetrahydro-2H-pyran-4-ylamino)-1H-pyrazolo[3,4-b]pyridin-5-yl]methyl}-2,5-pyrazinedicarboxamide]
